Target: T1, AlkBGT alkane monooxygenase complex (Ectopseudomonas oleovorans, UniProt P12691)
T1 construct: gene alkB; inner membrane AlkB with rubredoxin AlkG and reductase AlkT; expressed in E. coli from pGEc41; with Rubredoxin-2; Rubredoxin-NAD(+) reductase
T1 sequence (P12691 1-401): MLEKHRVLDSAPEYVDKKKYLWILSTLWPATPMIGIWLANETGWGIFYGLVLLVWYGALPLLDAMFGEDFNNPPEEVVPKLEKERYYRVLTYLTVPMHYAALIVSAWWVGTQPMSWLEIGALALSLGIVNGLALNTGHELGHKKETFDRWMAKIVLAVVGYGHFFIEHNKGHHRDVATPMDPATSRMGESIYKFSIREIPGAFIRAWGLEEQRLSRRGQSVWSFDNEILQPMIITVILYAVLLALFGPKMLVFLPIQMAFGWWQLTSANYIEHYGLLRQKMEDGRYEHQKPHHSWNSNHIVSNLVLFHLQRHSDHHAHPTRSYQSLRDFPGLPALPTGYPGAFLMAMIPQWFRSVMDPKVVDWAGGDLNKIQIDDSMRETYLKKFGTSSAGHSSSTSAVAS
Test: whole-cell oxidation, GC-FID of products
Type: cell-based
Details: 30 % (v/v) octane, 37 °C, E. coli with pGEc41

## CCCCCCCCO [1-octanol]
  whole-cell oxidation, GC-FID of products: The synthesis of 1-octanol and 1-octanal is attributed to AlkB
